Experimental findings from patent publication US12551421B2, “N-heptyl-glyceryl ether and synergistically active preservatives” (Evonik Operations GmbH, priority 2020, dated 2026) are described below.

For series [1], the system named is A. brasiliensis. Nature of the series: Preservation challenge test in O/W emulsion base #1, log reduction of viable microorganisms by plate count. To be noted: combined with another antimicrobial component in base #1, up to 28 days, FIGS. 1 to 12. Format: cell-based.
Series [2] concerns S. aureus. The series is described as above. To be noted: combined with another antimicrobial component in base #1, up to 28 days, FIGS. 12 to 19. The series is classed as cell-based. As for the experimental part: (§1) An O/W emulsion (base #1) was prepared as follows, and n-heptyl glyceryl ether, further antimicrobial compounds and combinations thereof were added to these bases:
(§2) Processing: • 1. Premix phase A and B separately and heat up to 78° C. • 2. Add phase A1 to A under stirring and wait until everything is dissolved. • 3. Add phase B to A under stirring. (Speed 6, for 30 sec.) Homogenize for 90 sec. using an Ultra Turrax. • 4. Cool down using a water bath • 5. Adjust pH.
(§3) Preparatory to the test, the surface of casein soya bean digest agar for bacteria or Saboraud-dextrose agar without the addition of antibiotics for fungi is inoculated with the recently grown stock culture of each of the specified microorganisms. […]
(§4) To count the viable microorganisms in the inoculated products, the agar medium used for the initial cultivation of the respective microorganism is used. […] At zero hour and at 7, 14 and 28 days 1 ml is removed from the sample and the number of viable microorganisms is determined by plate count. […]
To determine the efficacy of the antimicrobial composition, n-heptyl glyceryl ether, another antimicrobial compound and combinations thereof were incorporated into base as shown above. The antimicrobial activity against S. aureus was then evaluated as described above. […]

For series [3], the system named is C. albicans. Described as above. Format: cell-based. The settings on record: combined with another antimicrobial component in base #1, up to 28 days, FIGS. 20 to 25. As for the experimental part:
as §1, §2, §3, §4
To determine the efficacy of the antimicrobial composition, n-heptyl glyceryl ether, another antimicrobial compound and combinations thereof were incorporated into base #1 as shown above. The antimicrobial activity against C. albicans was then evaluated as described above. […]

A short description of series [4]: Water solubility / critical micelle concentration of n-heptyl-glyceryl ether. Format: physicochemical. The settings on record: water, without component B); read-out: water solubility before micelles are forming. The source says: N-heptyl-glyceryl ether has a water solubility of approximately 2 g/l before micelles are forming.

Values after ≈ are worked out from the molar mass of the structure shown.

Regarding `CCCCC(CC)COCC(O)CO` (stereo not shown) [ethylhexyl glycerin, reference compound], the “synergistic antimicrobial effect (log 10 reduction of combination greater than sum of individual components)” value in series [1], in series [2] and in series [3] was “No such synergism” throughout.

A word on the solubility: it is the concentration that dissolves in the medium under given conditions. Turning to `CCCCCCCOCC(O)CO` (stereo not shown) [n-heptyl glyceryl ether], the “synergistic antimicrobial effect (log 10 reduction of combination greater than sum of individual components)” value in series [1], in series [2] and in series [3] was “synergistic antimicrobial effects” throughout. Further, the solubility in series [4] was about 2000 µg/mL (≈ 10.5 mM).
